Results as given in patent publication US20140356414A1, “Targeted Crosslinked Multilamellar Liposomes” (University of Southern California, priority 2013, published 2014).

Assays:
[1] = Maximum tolerated dose study; details: for body weight: 8 days
From the text: The mice were weighed and monitored daily for 8 days after injection.

cardiac tissue = details: 20 mg/kg Dox equivalent, single i.v.
From the text: FIGS. 9A-B. In vivo toxicity and tolerability. […] (A) Average mouse weight loss over time. […] Error bars represent the standard deviation of the mean; n=2 for each treatment group (*p<0.05, ***p<0.005).

B16 cells = assay: In vitro cytotoxicity, XTT assay, B16 cells; assay type: cell-based; details: 48 h
Procedure: B16 or HeLa cells were plated at a density of 5×10^3 cells per well in D10 media in 96-well plates and grown for 6 h. The cells were then exposed to a series of concentrations of Dox-loaded CMLs, ULs or DLLs for 48 h, and the cytotoxicity of Dox-liposomes was assessed using the Cell Proliferation Kit II (XTT assay) from Roche Applied Science, according to the manufacturer's instructions.

For `COc1cccc2c1C(=O)c1c(O)c3c(c(O)c1C2=O)C[C@@](O)(C(=O)CO)C[C@@H]3O[C@H]1C[C@H](N)[C@H](O)[C@H](C)O1` [free Dox, doxorubicin], the body weight ([1]; 20 mg/kg Dox equivalent) was “significant loss of body weight”, the body weight ([1]; 40 mg/kg Dox equivalent) was “significant loss of body weight” and the “general health / signs of toxicity” value ([1]; 40 mg/kg free Dox, CML-Dox groups) was “obvious signs of toxicity”. For the same compound, the maximum tolerated dose ([1]; single intravenous administration, C57BL/6 mice) was less than 20 mg/kg, the “histopathologic changes in cardiac tissue” value (cardiac tissue) was “severe damage of cardiac tissue” and the “half-maximal response (EC50)” value (B16 cells) was “similar”.
